Entries after “also recorded” stand apart in the source; their conditions may differ.
Assays:
[1] = from CN1C(=O)C(c2c[nH]c3ccccc23)=C(c2cn(CCCOC(CCI)CO[Si](c3ccccc3)(c3ccccc3)C(C)(C)C)c3ccccc23)C1=O; amine bond; cesium carbonate; DMF; 5.85 mM; 83.0 h
[2] = test system: protein kinase C; conditions: literature; cited from earlier work
[3] = molecular target: T1, cAMP-dependent kinase catalytic subunit (Bos taurus, UniProt P00517); experiment: cAMP-Dependent protein Kinase Catalytic Subunit Assay; assay type: biochemical, bovine; conditions: Table 1
T1 construct: purchased Sigma, St. Louis, Mo; host or cells: bovine heart
Protocol: cAMP-Dependent protein Kinase Catalytic Subunit Assay (PEA) The Assay components are in a total volume of 250 μL: 20 mM HEPES (Sigma, St. Louis, Mo.) buffer pH 7.5, 200 μg/mL histone type HL (Worthington), 10 mM magnesium chloride (Sigma, St. […] The reaction is initiated by addition of bovine heart cAMP-dependent kinase catalytic subunit (Sigma, St. Louis, Mo.), incubated to 30° C. for 10 minutes and stopped by adding 0.5 mL ice cold Trichloroacetic acid (Amresco) followed by 100 μL of 1 mg/mL bovine serum albumin (Sigma). The precipitate is collected by vacuum filtrated on glass fiber filters employing a TOMTEC™ and quantified by counting in a beta scintillation counter. This assay is done identical to the protein kinase C (PKC) enzyme assay except that no phospholipids or diacylglycerol are employed in the assay and the histone substrate is specific for the cAMP-dependent catalytic subunit enzyme.

[4] = molecular target: calcium calmodulin dependent protein kinase; experiment: Calcium Calmodulin Dependent Protein Kinase Assay (CAM); assay type: biochemical, rat; conditions: Table 1
Protocol: Calcium Calmodulin Dependent Protein Kinase Assay (CAM)
The reaction is initiated by the addition of calcium calmodulin dependent protein kinase (isolated from rat brain homogenate), incubated at room temperature for 10 minutes and stopped by adding 0.5 mL ice cold trichloroacetic acid (Amresco) followed by 100 μL of 1 mg/mL bovine serum albumin (Sigma, St. Louis, Mo.). The precipitate is collected by vacuum filtration on glass fiber filters and quantified by counting in a beta scintillation counter.
25 μL calmodulin (250 μg/mL)
10 μL DMSO or DMSO/inhibitor

[5] = molecular target: T2, casein protein kinase II (Rattus norvegicus, UniProt P19139); experiment: Casein Protein Kinase II Assay (CK-II); assay type: biochemical; conditions: Table 1
T2 construct: isolated from rat brain homogenate; from tissue; host or cells: rat brain homogenate
Protocol: Casein Protein Kinase II Assay (CK-II)
The Casein Protein Kinase II Assay is described in Neurochem. […] The assay components are in a total volume of 250 μL: 20 mM Tris-HCl, pH 7.5, 5 mM sodium fluoride, 50 mg/mL Casein (Sigma, St. Louis, Mo.), 10 mM magnesium chloride (Sigma, St. Louis, Mo.), 10 μL DMSO or DMSO/inhibitor and 30 μm (gamma-32P) ATP (DuPont). Initiation of the reaction is performed by addition of casein protein kinase II (isolated from rat brain homogenate), incubated at room temperature for 10 minutes and stopped by the addition of 0.5 mL ice cold Trichloroacetic acid (Amresco) followed by 100 μL of 1 mg/mL bovine serum albumin (Sigma, St. Louis, Mo.). The precipitate is collected by vacuum filtration on glass fiber filters and quantified by counting in a beta scintillation counter.
Assay components in order of addition
10 μL or DMSO or DMSO/inhibitor
25 μL of AT32P in 300 μM magnesium chloride
40 μL of enzyme (undiluted)
Buffer prepared as follows:
(Final volume=3.5 mL: amount of 20 assays)

[6] = molecular target: PKC gamma (Homo sapiens, UniProt P05129); experiment: PKC Enzyme Assay, gamma isozyme; assay type: biochemical; conditions: Table 2; read-out: Isozymes ED50 γ
Protocol: (§1) PKC enzymes=alpha, beta I, beta II, gamma, delta, epsilon, eta and zeta.
(§2) Assay components in a total volume of 250 μL are as follows:
(§3) For all the enzymes either histone type HL (Worthington) or myelin basic protein is used as substrate. The assay is started by addition of protein kinase C enzyme incubated at 30° C. for 10 minutes and stopped by adding 0.5 mL of cold trichloroacetic acid (Amresco) followed by 100 μL of 1 mg/mL bovine serum albumin (Sigma, St. Louis, Mo.). The precipitate is collected by vacuum filtration on glass fiber filters employing a TOMTEC™ filtration system and quantified by counting in a beta scintillation counter.

[7] = molecular target: PKC eta (Homo sapiens, UniProt P24723); experiment: PKC Enzyme Assay, eta isozyme; assay type: biochemical; conditions: Table 2; read-out: Isozymes ED50 eta
Protocol: as §1, §2, §3

[8] = molecular target: PKC-α (Homo sapiens, UniProt P17252); experiment: PKC Enzyme Assay, alpha isozyme; assay type: biochemical; conditions: Table 1
Protocol: as §1, §2, §3

[9] = molecular target: PKC-β1 (Homo sapiens, UniProt P05771); experiment: PKC Enzyme Assay, beta-1 isozyme; assay type: biochemical; conditions: Table 1
Protocol: as §1, §2, §3

[10] = molecular target: PKC-β2 (Homo sapiens, UniProt P05771); experiment: PKC Enzyme Assay, beta-2 isozyme; assay type: biochemical; conditions: Table 1
Protocol: as §1, §2, §3

[11] = molecular target: T3, src (Homo sapiens, UniProt P12931); experiment: Protein Tyrosine Kinase Assay (src); assay type: biochemical; conditions: Table 1
T3 construct: purchased Onogene Science, Inc. PK02 and PK03
Protocol: Protein Tyrosine Kinase Assay (src)
The Assay components are the following:
4 μL DMSO or DMSO/inhibitor

T2 sequence (P19139 whole entry): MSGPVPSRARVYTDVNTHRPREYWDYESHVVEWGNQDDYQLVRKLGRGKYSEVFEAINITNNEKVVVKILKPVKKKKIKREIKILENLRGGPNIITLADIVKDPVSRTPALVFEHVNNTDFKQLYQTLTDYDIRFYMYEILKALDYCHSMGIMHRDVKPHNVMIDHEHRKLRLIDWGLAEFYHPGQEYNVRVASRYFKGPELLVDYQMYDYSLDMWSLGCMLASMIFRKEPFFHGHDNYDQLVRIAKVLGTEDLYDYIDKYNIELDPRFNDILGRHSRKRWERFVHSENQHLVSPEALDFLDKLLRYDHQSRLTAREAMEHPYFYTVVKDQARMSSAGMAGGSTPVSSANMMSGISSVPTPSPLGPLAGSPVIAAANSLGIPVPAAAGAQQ
T2 sequence (P67874 2-215 partner limits assumed): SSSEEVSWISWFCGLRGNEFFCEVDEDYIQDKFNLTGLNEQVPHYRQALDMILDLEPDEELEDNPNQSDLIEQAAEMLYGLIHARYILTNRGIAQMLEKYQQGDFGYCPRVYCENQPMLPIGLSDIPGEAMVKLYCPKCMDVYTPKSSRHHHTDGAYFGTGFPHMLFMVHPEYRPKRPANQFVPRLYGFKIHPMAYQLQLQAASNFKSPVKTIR
Chain of PKC-β1 (P05771 whole entry): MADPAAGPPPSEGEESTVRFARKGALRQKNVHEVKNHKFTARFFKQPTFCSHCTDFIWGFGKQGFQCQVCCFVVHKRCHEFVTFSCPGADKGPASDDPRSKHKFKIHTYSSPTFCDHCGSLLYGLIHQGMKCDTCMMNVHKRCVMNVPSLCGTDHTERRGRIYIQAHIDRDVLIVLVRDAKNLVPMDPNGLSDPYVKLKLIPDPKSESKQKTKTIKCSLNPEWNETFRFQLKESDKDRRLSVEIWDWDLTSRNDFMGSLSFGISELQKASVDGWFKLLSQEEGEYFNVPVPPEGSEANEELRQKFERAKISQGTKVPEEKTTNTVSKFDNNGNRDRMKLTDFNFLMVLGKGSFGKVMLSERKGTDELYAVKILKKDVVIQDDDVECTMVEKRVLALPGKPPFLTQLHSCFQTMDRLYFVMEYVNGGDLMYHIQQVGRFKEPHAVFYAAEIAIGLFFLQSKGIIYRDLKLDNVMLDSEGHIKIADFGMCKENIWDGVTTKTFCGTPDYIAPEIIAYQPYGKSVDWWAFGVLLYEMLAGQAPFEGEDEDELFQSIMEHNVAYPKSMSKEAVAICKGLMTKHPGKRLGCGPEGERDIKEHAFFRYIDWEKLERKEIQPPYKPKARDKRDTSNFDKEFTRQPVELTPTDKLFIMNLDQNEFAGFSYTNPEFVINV
T3 sequence (P12931 whole entry, species assumed): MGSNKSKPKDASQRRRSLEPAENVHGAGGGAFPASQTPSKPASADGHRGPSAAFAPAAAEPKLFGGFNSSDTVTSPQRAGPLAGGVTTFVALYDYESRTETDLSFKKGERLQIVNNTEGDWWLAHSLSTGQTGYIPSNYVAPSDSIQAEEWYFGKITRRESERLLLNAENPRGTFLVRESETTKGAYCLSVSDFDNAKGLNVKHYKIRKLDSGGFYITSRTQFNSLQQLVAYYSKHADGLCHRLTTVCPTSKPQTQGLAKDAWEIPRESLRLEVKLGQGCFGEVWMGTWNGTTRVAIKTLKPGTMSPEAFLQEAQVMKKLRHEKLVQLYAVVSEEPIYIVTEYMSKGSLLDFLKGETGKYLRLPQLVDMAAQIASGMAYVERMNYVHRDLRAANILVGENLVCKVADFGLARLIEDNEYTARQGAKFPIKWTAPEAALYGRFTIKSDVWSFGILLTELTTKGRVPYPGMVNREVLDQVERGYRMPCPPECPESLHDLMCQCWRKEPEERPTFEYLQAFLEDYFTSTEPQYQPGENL
Chain of PKC-β2 (P05771 1-673 isoform P05771-2): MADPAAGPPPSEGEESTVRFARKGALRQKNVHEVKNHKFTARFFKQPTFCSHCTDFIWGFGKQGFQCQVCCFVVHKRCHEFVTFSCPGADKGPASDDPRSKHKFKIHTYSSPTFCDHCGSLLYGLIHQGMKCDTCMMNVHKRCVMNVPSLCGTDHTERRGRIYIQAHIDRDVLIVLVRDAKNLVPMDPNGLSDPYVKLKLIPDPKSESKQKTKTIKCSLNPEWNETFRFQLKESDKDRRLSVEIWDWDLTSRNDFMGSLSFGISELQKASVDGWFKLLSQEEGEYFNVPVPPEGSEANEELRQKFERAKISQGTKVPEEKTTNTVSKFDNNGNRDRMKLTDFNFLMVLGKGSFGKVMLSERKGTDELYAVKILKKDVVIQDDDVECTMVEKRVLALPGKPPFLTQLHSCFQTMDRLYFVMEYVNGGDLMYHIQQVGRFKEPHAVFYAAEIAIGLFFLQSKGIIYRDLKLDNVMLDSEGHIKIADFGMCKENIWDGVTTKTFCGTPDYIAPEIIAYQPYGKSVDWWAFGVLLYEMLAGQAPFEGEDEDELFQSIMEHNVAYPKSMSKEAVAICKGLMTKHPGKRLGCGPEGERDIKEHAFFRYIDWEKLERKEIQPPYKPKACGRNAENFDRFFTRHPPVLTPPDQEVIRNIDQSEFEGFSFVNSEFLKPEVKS
Chain of PKC eta (P24723 whole entry): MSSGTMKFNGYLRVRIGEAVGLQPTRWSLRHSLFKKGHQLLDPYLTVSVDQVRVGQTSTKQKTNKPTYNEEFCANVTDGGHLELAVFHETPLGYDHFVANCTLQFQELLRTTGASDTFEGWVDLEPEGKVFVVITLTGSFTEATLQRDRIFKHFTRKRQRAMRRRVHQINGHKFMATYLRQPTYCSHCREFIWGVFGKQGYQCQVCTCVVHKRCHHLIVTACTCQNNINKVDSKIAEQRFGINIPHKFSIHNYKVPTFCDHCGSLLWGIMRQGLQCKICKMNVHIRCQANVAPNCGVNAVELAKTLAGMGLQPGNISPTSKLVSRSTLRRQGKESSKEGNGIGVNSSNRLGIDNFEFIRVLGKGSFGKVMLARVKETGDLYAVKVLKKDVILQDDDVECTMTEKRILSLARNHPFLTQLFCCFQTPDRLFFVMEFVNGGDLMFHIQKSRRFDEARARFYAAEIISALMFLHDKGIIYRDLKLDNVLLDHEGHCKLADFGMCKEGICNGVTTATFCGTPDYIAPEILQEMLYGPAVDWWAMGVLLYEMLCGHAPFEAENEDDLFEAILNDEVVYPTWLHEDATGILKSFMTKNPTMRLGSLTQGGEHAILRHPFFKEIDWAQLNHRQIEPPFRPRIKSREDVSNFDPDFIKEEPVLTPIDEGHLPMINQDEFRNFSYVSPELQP

Row | Compound | ring closure, yield of all isomers [1] [%] | isozyme selectivity [2] | IC50 [3] [µM] | IC50 [4] [µM] | IC50 [5] [µM] | IC50 [6] [µM] | IC50 [7] [µM] | IC50 [8] [µM] | IC50 [9] [µM] | IC50 [10] [µM] | IC50 [11] [µM]
1 | CN1C(=O)C2=C(C1=O)c1cn(c3ccccc13)CCC(CO[Si](c1ccccc1)(c1ccccc1)C(C)(C)C)OCCCn1cc2c2ccccc21 (stereo not drawn) | 97 | – | – | – | – | – | – | – | – | – | –
2 | CN(C)CCCn1cc(C2=C(c3c[nH]c4ccccc34)C(=O)NC2=O)c2ccccc21 [3-[1-(3-dimethylaminopropyl)-indol-3-yl]-4-(1H-indol-3-yl)-1H-pyrrole-2,5-dione] | – | slight selectivity for the calcium dependent isozymes; also recorded: no difference, or possibly slight selectivity, for alpha over beta-1 and beta-2 isozymes | – | – | – | – | – | – | – | – | –
3 | CN(C)CC1CCn2cc(c3ccccc32)C2=C(C(=O)NC2=O)c2cn(c3ccccc23)CCO1 (stereo not drawn) [Example 5] | – | – | > 100 | 4 | > 100 | 0.23 | 0.035 | – | – | – | –
4 | CC(=O)OCC1CCCn2cc(c3ccccc32)C2=C(C(=O)NC2=O)c2cn(c3ccccc23)CC1 (stereo not drawn) [Example 38, 3,4-[(N,N'-1,1'-(3"-(acetoxy)methylene)-hexane)-bis-(3,3'-indolyl)]-1H-pyrrole-2,5-dione] | – | – | > 100 | 9 | > 100 | – | – | 4 | 0.2 | 0.1 | > 100
5 | O=C(NCC1CCCn2cc(c3ccccc32)C2=C(C(=O)NC2=O)c2cn(c3ccccc23)CC1)OCc1ccccc1 (stereo not drawn) [Example 39] | – | – | > 100 | > 100 | > 100 | – | – | 31 | 0.4 | 0.3 | > 100
6 | O=C1NC(=O)C2=C1c1cn(c3ccccc13)CCCCCCCn1cc2c2ccccc21 [Example 42] | – | – | > 100 | > 100 | > 100 | – | – | > 100 | 0.5 | 0.6 | > 100
7 | NC1CCCn2cc(c3ccccc32)C2=C(C(=O)NC2=O)c2cn(c3ccccc23)CCC1 [Example 45] | – | – | > 100 | 39 | > 100 | – | – | 3 | 0.1 | 0.1 | > 125
8 | CC(=O)NC1CCCn2cc(c3ccccc32)C2=C(C(=O)NC2=O)c2cn(c3ccccc23)CCC1 [Example 46] | – | – | > 100 | 63 | > 100 | – | – | 3 | 0.04 | 0.04 | > 100
9 | O=C1NC(=O)C2=C1c1cn(c3ccccc13)CCCC(NCc1ccccc1)CCCn1cc2c2ccccc21 [Example 47] | – | – | > 100 | 70 | > 100 | – | – | 2 | 0.07 | 0.06 | > 125
10 | O=C1NC(=O)C2=C1c1cn(c3ccccc13)CCCC1(CCCn3cc2c2ccccc23)OCCO1 [Example 48] | – | – | > 100 | > 100 | > 100 | – | – | > 100 | 0.5 | 0.3 | > 100
11 | O=C1CCCn2cc(c3ccccc32)C2=C(C(=O)NC2=O)c2cn(c3ccccc23)CCC1 [Example 49] | – | – | > 100 | > 100 | > 100 | – | – | 10 | 0.6 | 0.4 | > 100

From patent US5696108A, “Protein kinase C inhibitors” (Eli Lilly and Company, priority 1996, dated 1997)
